Experimental data as given in paper PMC7061440 (Cell reports, 2019).
Values joined by “and” are separate entries in the source; they are usually repeats but may differ in a detail not shown here. Equal entries are not always repeated.

Experiments:
CaoV3 cells = test: Minimal residual disease model, CaoV3 subcutaneous; conditions: 3 weeks treatment, 6 months follow-up
[1] = tested on: bulk cells, multiple cell lines; test: Bulk cell viability in multiple cell lines; assay type: cell-based
CD133+ cells = test: Intracellular calcium level; assay type: cell-based
[2] = tested on: CD133+ cells (A2780, OVSAHO, OvCAR5); test: Depletion of CD133+ CSC by FACS 72 h after treatment; assay type: cell-based
[3] = tested on: primary patient cells (HGS); test: Tumor sphere growth assay; assay type: cell-based, human; conditions: single 12.5 μM dose
[4] = tested on: chemotherapy-resistant SKOv3 cells; test: Cellular recovery assay with cisplatin; assay type: cell-based; conditions: for cellular recovery: SKOv3, 9 days after treatment, single agent
[5] = tested on: FACS-sorted CD133+ (A2780) cells; test: Annexin-V/PI FACS analysis of apoptosis; assay type: cell-based; conditions: 12.5 μM
[6] = Hematologic, renal, and liver function tests; assay type: in vivo; conditions: liver function tests, 673A added to cisplatin
ALDH1A1 = ALDH1A1 (Homo sapiens, UniProt P00352); test: ALDH enzymatic activity, in vitro inhibition; assay type: biochemical; conditions: IC50 ALDH1A1, in vitro enzymatic assay, propionaldehyde/NAD+
ALDH1A1, sequence (P00352 whole entry): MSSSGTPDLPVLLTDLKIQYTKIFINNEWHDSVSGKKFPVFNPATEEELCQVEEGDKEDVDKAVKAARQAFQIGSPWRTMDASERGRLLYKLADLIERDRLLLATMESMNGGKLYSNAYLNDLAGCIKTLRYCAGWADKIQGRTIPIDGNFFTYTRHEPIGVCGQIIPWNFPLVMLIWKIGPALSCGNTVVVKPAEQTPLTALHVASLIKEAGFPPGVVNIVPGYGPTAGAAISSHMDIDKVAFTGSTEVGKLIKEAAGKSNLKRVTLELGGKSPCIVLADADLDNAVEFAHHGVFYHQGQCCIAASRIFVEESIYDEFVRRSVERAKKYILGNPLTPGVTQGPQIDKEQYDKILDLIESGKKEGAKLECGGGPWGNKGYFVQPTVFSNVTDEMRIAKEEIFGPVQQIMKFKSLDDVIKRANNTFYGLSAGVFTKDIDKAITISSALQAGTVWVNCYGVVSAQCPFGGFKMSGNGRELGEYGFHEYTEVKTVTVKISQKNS

[7] = tested on: FACS-isolated ALDH+CD133+ A2780 cells; test: Single-cell microfluidic culture cell death; assay type: cell-based; conditions: microfluidic chips, 72 h
[8] = target: ALDH1A1 Cys303 in SKOv3 tumors (Homo sapiens, UniProt P00352); test: isoTOP-ABPP of ALDH1A in tumors in vivo; parameters: species or system mice; conditions: 673A-treated tumors
ALDH1A1 Cys303 in SKOv3 tumors, sequence (P00352 whole entry): as above

ALDH1A3 = ALDH1A3 (Homo sapiens, UniProt P47895); test: ALDH enzymatic activity, in vitro inhibition; assay type: biochemical; conditions: IC50 ALDH1A3, in vitro enzymatic assay, propionaldehyde/NAD+
ALDH1A3, sequence (P47895 whole entry): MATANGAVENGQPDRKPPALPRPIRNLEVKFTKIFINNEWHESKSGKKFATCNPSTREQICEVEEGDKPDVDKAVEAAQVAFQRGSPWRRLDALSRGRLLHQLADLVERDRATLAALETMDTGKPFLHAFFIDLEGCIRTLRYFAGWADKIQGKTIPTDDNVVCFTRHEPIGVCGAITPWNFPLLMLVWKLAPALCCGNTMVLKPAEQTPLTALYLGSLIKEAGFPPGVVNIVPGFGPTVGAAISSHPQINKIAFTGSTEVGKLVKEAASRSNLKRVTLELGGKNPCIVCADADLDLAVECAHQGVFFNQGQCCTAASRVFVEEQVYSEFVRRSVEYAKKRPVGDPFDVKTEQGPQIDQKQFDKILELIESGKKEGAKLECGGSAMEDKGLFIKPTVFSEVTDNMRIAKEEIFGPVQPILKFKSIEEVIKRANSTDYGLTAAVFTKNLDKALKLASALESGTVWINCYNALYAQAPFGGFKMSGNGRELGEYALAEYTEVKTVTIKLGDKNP

ALDH1A2 = ALDH1A2 (Homo sapiens, UniProt O94788); test: ALDH enzymatic activity, in vitro inhibition; assay type: biochemical; conditions: IC50 ALDH1A2, in vitro enzymatic assay, propionaldehyde/NAD+
ALDH1A2, sequence (O94788 whole entry): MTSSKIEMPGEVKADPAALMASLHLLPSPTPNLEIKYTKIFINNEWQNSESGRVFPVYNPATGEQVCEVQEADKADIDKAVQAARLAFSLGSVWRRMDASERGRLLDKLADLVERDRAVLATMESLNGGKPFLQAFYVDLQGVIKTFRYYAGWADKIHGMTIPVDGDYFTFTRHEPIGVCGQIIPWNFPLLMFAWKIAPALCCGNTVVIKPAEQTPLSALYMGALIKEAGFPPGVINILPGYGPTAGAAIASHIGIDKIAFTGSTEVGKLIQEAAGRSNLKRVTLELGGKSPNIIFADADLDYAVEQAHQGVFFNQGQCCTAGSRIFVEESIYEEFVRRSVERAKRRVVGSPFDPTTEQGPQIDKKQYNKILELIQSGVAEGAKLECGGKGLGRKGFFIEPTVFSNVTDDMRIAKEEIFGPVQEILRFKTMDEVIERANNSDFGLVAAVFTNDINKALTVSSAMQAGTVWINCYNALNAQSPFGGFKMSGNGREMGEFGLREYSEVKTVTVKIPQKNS

[9] = tested on: non-malignant MCF10A cells; test: Toxicity to normal cells; assay type: cell-based
[10] = tested on: endometrioid ovarian cancer
PEO1 cells = test: ALDEFLUOR assay of ALDH activity in live PEO1 cells; assay type: cell-based
ALDH2 = ALDH2 (Homo sapiens, UniProt P05091); test: biochemical
ALDH2, sequence (P05091 18-517): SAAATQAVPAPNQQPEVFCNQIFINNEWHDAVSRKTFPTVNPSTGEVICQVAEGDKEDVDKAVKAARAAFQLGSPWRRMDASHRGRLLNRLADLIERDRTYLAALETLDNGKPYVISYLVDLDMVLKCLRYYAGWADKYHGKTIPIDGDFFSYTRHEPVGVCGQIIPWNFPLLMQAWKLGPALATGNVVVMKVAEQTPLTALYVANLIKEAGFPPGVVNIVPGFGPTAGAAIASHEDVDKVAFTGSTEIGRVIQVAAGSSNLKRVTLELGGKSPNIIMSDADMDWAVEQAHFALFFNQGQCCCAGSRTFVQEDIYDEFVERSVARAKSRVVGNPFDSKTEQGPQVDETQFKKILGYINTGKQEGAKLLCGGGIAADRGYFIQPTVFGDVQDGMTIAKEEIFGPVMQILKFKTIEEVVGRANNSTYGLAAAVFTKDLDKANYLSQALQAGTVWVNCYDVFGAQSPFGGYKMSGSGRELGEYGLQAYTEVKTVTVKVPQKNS

platinum-resistant PDX = test: Chemotherapy-resistant patient-derived xenograft; assay type: in vivo, mice; conditions: 673A added to carboplatin or cisplatin
[11] = tested on: other ALDH family members; test: ALDH enzymatic activity, in vitro inhibition; assay type: biochemical; conditions: in vitro enzymatic assay
[12] = tested on: OVCAR5-ALDH1A3-knockout (KO) cells; test: 673 dose-response in CRISPR knockout cells; assay type: cell-based
[13] = tested on: human mesenchymal stem cells; test: Toxicity to normal cells; assay type: cell-based
[14] = tested on: Ovsaho, HEY-1, and A2780 cell-line xenografts; test: Cell-line xenografts, single agent
splenocytes = test: ALDEFLUOR activity in splenocytes of treated animals; assay type: in vivo, mice; conditions: animals being treated with 673A
[15] = tested on: primary cells from HGSC patients; test: Seahorse mitochondrial flux analysis; assay type: cell-based, human; conditions: 12.5 μM
[16] = tested on: FACS-sorted ALDH+ SKOv3 cells; test: Intraperitoneal ALDH+ SKOv3 survival study
SKOv3 cells = assay type: in vivo, mice

O=Cc1ccc(N2Cc3ccccc3C2)cc1 [673A, 4-(1,3-dihydro-2H-isoindol-2-yl)benzaldehyde]
mice that developed tumors (CaoV3 cells; cisplatin and 673A): 40%
mice that developed tumors (CaoV3 cells; single agent): 50%
TD50 bulk cell viability [1]: 40 to 80 µM
increase in intracellular Ca (CD133+ cells; 16 h after treatment): 1.5 fold
increase in intracellular Ca (CD133+ cells; 24 h after treatment): 6 fold
depletion of CD133+ CSCs / toxicity [2]: highly effective at preferentially depleting CD133^+ CSC
average reduction in tumor sphere formation [3]: 19 fold
reduction in cell number ([4]; SKOv3, 9 days after combined treatment of cisplatin and 673A): 30 fold
cellular recovery [4]: 100%
induction of annexin-V [5]: no significant early or late induction of annexin-V
toxicity with addition to cisplatin [6]: no additional toxicity
IC50 (ALDH1A1): 246 nM and < 350 nM
treated cells that died [7]: > 90%
engagement of ALDH1A1 catalytic residue [8]: clear protection of the catalytic residue Cys303 in ALDH1A1
IC50 (ALDH1A3): 348 nM and < 350 nM
IC50 (ALDH1A2): 230 nM and < 350 nM
toxicity to non-malignant MCF10A cells [9]: little or no toxicity
mice tumor free at conclusion of experiment ([10]; carboplatin weekly and 673A 20 mg/kg daily for 7 weeks): 27%
inhibition at 25 µM (PEO1 cells; Homo sapiens, PEO1, 6 h, read-out: inhibition of ALDEFLUOR activity): 98%
time to inhibition of PEO1 ALDEFLUOR activity (PEO1 cells; PEO1 cells, persisted after 6 h): ≤ 1 h
IC50 (ALDH2): 14000 nM and ~15000 nM
reduction of final tumor weight (platinum-resistant PDX): more than 2 fold
inhibition of other ALDH family members tested [11]: minimal or no inhibition
increase in TD50 versus control cells [12]: ~ 10 ×
toxicity to human mesenchymal stem cells [13]: little or no toxicity
reduction of tumor burden ([14]; 20 mg/kg daily for 21 days): 40%–60%
reduction of tumor growth as a single agent ([14]; in vivo, single agent): > 50%
decrease of ALDEFLUOR activity in splenocytes (splenocytes): 3 fold
OXPHOS capacity [15]: decreased OXPHOS capacity
mice disease free at 6 months ([16]; cisplatin and 673A): 62%
tumor initiation capacity (SKOv3 cells; 673A combined with cisplatin therapy): eliminated tumor initiation capacity
reduction in tumor growth versus no treatment or cisplatin therapy (SKOv3 cells; SKOv3 treated in vitro 12.5 μM, 48 h, 5,000 live cells injected): 4–5 fold
reduction of tumor initiation (SKOv3 cells; limiting dilution assay, 673A alone): ~ 50%

CCN(CC)c1ccc(C=O)cc1 [DEAB, N,N-diethylaminobenzaldehyde, reference compound]
depletion of CD133+ CSCs / toxicity [2]: preferential depletion of CD133^+ cells
inhibition of ALDEFLUOR activity (PEO1 cells; PEO1 cells, 6 h, equimolar doses (25 μM)): 40%

CCN(CC)C(=S)SSC(=S)N(CC)CC [DSF, disulfiram, reference compound]
effect on cancer growth (SKOv3 cells; SKOv3 treated in vitro, 5,000 live cells injected): no effect on cancer growth

N.N.O=C([O-])C1(C(=O)[O-])CCC1.[Pt+2] [carboplatin, reference compound]
mice tumor free after therapy ([10]; carboplatin alone, 25 mg/kg weekly): 16%

N.N.[Cl][Pt][Cl] [cisplatin, reference compound]
mice that developed tumors (CaoV3 cells; single agent): Ninety
cellular recovery [4]: 100%
mice that died ([16]; cisplatin only): 100%

O=c1c(-c2ccc(O)cc2)coc2cc(O[C@@H]3O[C@H](CO)[C@@H](O)[C@H](O)[C@H]3O)ccc12 [daidzin, reference compound]
depletion of CD133+ CSCs / toxicity [2]: no significant toxicity
therapeutic benefit of addition to cisplatin ([4]; SKOv3, added to cisplatin): No therapeutic benefit
